We go through twelve compounds from patent US5310884A (Merck Frosst Canada, Inc., priority 1992, dated 1994).

SMILES strings stand for the structures. Read-outs that look alike come from different tables or passages of the source.

The target of experiment [1] is T1, LTD4 receptor (guinea-pig lung membranes) (Cavia porcellus, UniProt Q2NNR5).
T1 sequence (Q2NNR5 1-340): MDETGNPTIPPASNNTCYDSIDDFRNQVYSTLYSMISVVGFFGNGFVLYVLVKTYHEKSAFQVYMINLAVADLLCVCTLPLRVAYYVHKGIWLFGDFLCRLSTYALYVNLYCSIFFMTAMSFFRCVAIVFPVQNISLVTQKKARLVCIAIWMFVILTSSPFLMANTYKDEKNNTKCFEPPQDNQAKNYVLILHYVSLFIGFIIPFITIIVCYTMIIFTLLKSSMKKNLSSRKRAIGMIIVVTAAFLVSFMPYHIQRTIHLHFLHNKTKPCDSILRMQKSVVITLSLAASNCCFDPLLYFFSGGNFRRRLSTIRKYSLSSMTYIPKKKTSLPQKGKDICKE
Nature of the experiment: biochemical. Particulars: for effect of divalent cation on [3H]LTD4 specific binding: CaCl2 at concentrations above 30 mM, MgCl2 instead of CaCl2. The protocol: (§1) Guinea pigs (male; 350 g) were sacrificed by cervical dislocation and the lung tissues removed. All subsequent procedures were performed either on ice or at 4° C. Connective tissue, trachea, large blood vessels and major airways were dissected away and the remaining lung tissue (primarily parenchyma) was finely minced prior to homogenisation in 10 vol of 10 mM HEPES/KOH pH 7.4, containing 0.25 M sucrose, 2 mM EDTA, 2 mM phenylmethylsulphonyl fluoride, 10 μg/ml pepstatin, 10 μg/ml leupeptin and 10 μM E-64, using 5 s bursts of a polytron (Brinkman Instruments). The homogenate was subjected to differential centrifugation at 1000×g for 10 min, 10,000×g for 10 min and 100,000×g for 40 min. The resulting 100,000×g pellets were resuspended in 10 mM HEPES/KOH pH 7.4, containing 10% (w/v) sucrose, at a final protein concentration of 1-2 mg/ml. This tissue suspension was carefully layered over 10 mM HEPES/KOH pH 7.4 containing 40% (w/v) sucrose in a 3:2 (v/v) ratio. The discontinuous sucrose gradient was centrifuged at 83,000×g for 60 min. The membrane fraction located at the interface of the sucrose gradient layers was recovered, diluted 10-fold in 10 mM HEPES/KOH pH 7.4 and further centrifuged at 150,000×g for 40 min. The final membrane pellets were resuspended in 10 mM HEPES/KOH pH 7.4 at a protein concentration of 2-4 mg/ml and stored at […].
Competition experiments were analysed and IC50 values derived using the Kinetic, EBDA, Ligand, […] program from Biosoft (McPherson, 1985).
(§2) FIG. 4. […] Radiolabelled proteins were resolved by SDS-PAGE and visualized by autoradiography. […] In addition, photoaffinity labelled membranes were subjected to immunoprecipitation with RAGpAlb (Lane C) and non-immune rabbit serum (Lane D), as described in the Methods. The migration of molecular weight standards is indicated on the left. FIGS. 5(A)-5(C). […] Results are expressed as percentage of maximum specific binding as a function of CaCl2 concentration. […] Only the results for total binding are shown.
(§3) Results are expressed as percentage of maximum specific binding as a function of nucleotide concentration. […] Only the results for total binding are shown.
(§4) Results are expressed as percentage of maximum specific binding as a function of cation concentration. […] Only the results for total binding are shown.

Experiment [2] deals with T2, 45 kDa guinea-pig lung membrane protein (Cavia porcellus, UniProt Q2NNR5).
T2 construct: Guinea pigs (male; from tissue; host or cells: guinea-pig lung (primarily parenchyma), sucrose-gradient membrane fraction
T2 sequence (Q2NNR5 1-340): T1 sequence (Q2NNR5 1-340)
Kind of experiment: [125I]Azido-LTD4 photoaffinity labelling of the 45 kDa guinea-pig lung membrane protein (SDS-PAGE, autoradiography, laser densitometry). In kind it is binding. Particulars: for IC50: laser densitometry, leukotrienes and antagonists, read-out: IC50 for inhibition of photolabelling of the 45 kDa protein. The method, then: as §1
(§5) Samples were incubated for 60 min at room temperature. […] The residual samples were then transferred to 25 mm diameter cluster plate well for photolysis. The cluster plates were placed on aluminium blocks, pre-cooled to -20° C., and illuminated from above with a 40 W ultraviolet light source (Phillips, γmax =350 nm) at a distance of 10 cm for 2 min. The guinea-pig lung membranes were then recovered from 1 ml sample aliquots by centrifugation at 150,000×g for 15 min at 4° C. and solubilized in sodium dodecyl sulphate polyacrylamide gel electrophoresis (SDS-PAGE) sample buffer prior to resolution of the proteins by SDS-PAGE (Laemmli, 1970). Protein bands were visualized by Coomassie Blue staining while radiolabelled proteins were identified by autoradiography of dried gels and quantified by laser densitometry (Molecular Dynamics, ImageQuant).
as §2, §3, §4

Experiment [3] addresses T1, LTD4 receptor (guinea-pig lung membranes). Particulars: for effect of divalent cation on [125I]Azido-LTD4 specific binding: CaCl2 at concentrations above 30 mM, MgCl2 instead of CaCl2. The method, then:
as §1
Filters were then washed with 16 ml of 10 mM HEPES/KOH, pH 7.4 containing 0.01% (w/v) bovine serum albumin, at 4° C.
as §2, §3, §4

For experiment [4], the system named is 45 kDa guinea-pig lung membrane protein. Kind of experiment: [125I]Azido-LTD4 photoaffinity labelling of the 45 kDa guinea-pig lung membrane protein (SDS-PAGE, autoradiography, laser densitometry). In kind it is binding. The settings on record: for effect of divalent cation on photolabelling of the 45 kDa protein: CaCl2, same concentration range, MgCl2 instead of CaCl2. The method, then: as §1, §5, §2, §3, §4

Experiment [5] has as its target T1, LTD4 receptor (guinea-pig lung membranes). Nature of the experiment: Saturation binding to guinea-pig lung membranes, Scatchard plot analysis. More on the design: Guinea pigs (male; 350 g) were sacrificed by cervical dislocation and the lung tissues removed; from tissue; host or cells: guinea-pig lung (primarily parenchyma), sucrose-gradient membrane fraction. The settings on record: Scatchard, single site.

Experiment [6] has the same target. Kind of experiment: Rates of association and dissociation of radioligand binding to guinea-pig lung membranes. More on the design: Guinea pigs (male; from tissue; host or cells: guinea-pig lung (primarily parenchyma), sucrose-gradient membrane fraction. Particulars: identical experimental conditions; data not shown. The method, then:
FIG. 3. […] Aliquots (500 μl) were removed and filtered at the required time intervals.

For `CN(C)C(=O)CCSC(SCCC(=O)O)c1cccc(/C=C/c2ccc3ccc(Cl)cc3n2)c1` (centres unmarked) [MK-571], the IC50 (usually the point on the concentration scale where inhibition reaches its midpoint) in experiment [1] turned out to be 0.002 µM; in experiment [2], 0.001 µM; in experiment [3] (read-out: IC50 for competition with [125I]Azido-LTD4 specific binding, leukotrienes and antagonists, LTC4 with 50 mM serine-borate) it was 0.003 µM.

For the compound `COc1cc(C(=O)NS(=O)(=O)c2ccccc2C)ccc1Cc1cn(C)c2ccc(NC(=O)OC3CCCC3)cc12` [lCl 204,219], the IC50 in experiment [2] came to 0.0003 µM.

Consider `[Ca+2].[Cl-].[Cl-]` [CaCl2], for which, in experiment [1], the “concentration for optimal [3H]LTD4 specific binding” value was 3 to 30 mM and the “effect of divalent cation on [3H]LTD4 specific binding” value is listed as “higher concentrations proving inhibitory”. Further, in experiment [4], the “concentration for optimal radiolabelling of the 45 kDa protein” value lay in the range of 3 to 30 mM and the “effect of divalent cation on photolabelling of the 45 kDa protein” value is reported as “enhanced”. In experiment [3], the “concentration for optimal [125I]Azido-LTD4 specific binding” value lay within 3 to 30 mM and the “effect of divalent cation on [125I]Azido-LTD4 specific binding” value is recorded as “higher concentrations proving inhibitory”.

`[Cl-].[Cl-].[Mg+2]` [MgCl2]: in experiment [1], the “effect of divalent cation on [3H]LTD4 specific binding” value is given as “Identical results”. In addition, in experiment [4], the “effect of divalent cation on photolabelling of the 45 kDa protein” value is “Identical results”. For the same compound, the “effect of divalent cation on [125I]Azido-LTD4 specific binding” value in experiment [3] is listed as “Identical results”.

`[Cl-].[K+]` [KCl]: in experiment [1] (KCl, 0-100 mM), the “inhibition of [3H]LTD4 specific binding” value is listed as “did not significantly inhibit”. The “inhibition of photolabelling of the 45 kDa protein” value in experiment [4] (KCl, 0-100 mM) was “did not significantly inhibit”. Further, in experiment [3] (KCl, 0-100 mM), the “inhibition of [125I]Azido-LTD4 specific binding” value was “did not significantly inhibit”.

For the compound `CCCCC/C=C\C\C=C/C=C/C=C/[C@@H](SCC(N)C(=O)NCC(=O)O)[C@@H](O)CCCC(=O)O` (some centres unmarked) [[^3 H]LTD4], the “maximum number of binding sites (Bmax)” value in experiment [5] is given as 2000 fmol/mg protein. In addition, the “association and dissociation profile compared with [125I]Azido-LTD4” value in experiment [6] is “identical”.

Consider `CCCCC/C=C\C\C=C/C=C/C=C/[C@@H](SC[C@H](NC(=O)CCCCCNC(=O)c1cc(I)c(N=[N+]=[N-])cc1O)C(=O)NCC(=O)O)[C@@H](O)CCCC(=O)O` [^127 lAzido-LTD4], for which the affinity in experiment [1] corresponds to a Ki of 0.0017 µM. Further, the “Ki relative to LTD4 (fold higher)” value in experiment [1] (vs Ki of LTD4, same assay) turned out to be 5 fold.

For `CCCCC/C=C\C[C@@H](O)/C=C/C=C/C=C\[C@@H](O)CCCC(=O)O` [LTB4], the “potency relative to LTD4 (fold less potent), [3H]LTD4 specific binding” value in experiment [1] (vs LTD4) was “approximately 10000 fold”. Moreover, in experiment [2] (LTB4), the “concentration at which it competes for radiolabelling of the 45 kDa protein” value was found to be 10 µM. Also, the “potency relative to LTD4 (fold less potent), [125I]Azido-LTD4 specific binding” value in experiment [3] (vs LTD4) is reported as “approximately 10000 fold”.

As for `CC(C)c1ccc2c(c1)c(SC(C)(C)C)c(CC(C)(C)C(=O)O)n2Cc1ccc(Cl)cc1` [MK-886], in experiment [1] (weak competing ligand), the “concentration producing inhibition of [3H]LTD4 specific binding” value is greater than 1 µM. Besides, the “competition for radiolabelling of the 45 kDa protein” value in experiment [2] (MK-886, 0-10 μM) is on record as “only able to compete for the selective radiolabelling of the 45 kDa protein at similarly high ligand concentrations”. The “concentration producing inhibition of [125I]Azido-LTD4 specific binding” value in experiment [3] (weak competing ligand) was greater than 1 µM.

For the compound `[Cl-].[Na+]` [NaCl], the IC50 was roughly 30000 µM in experiment [1] (read-out: IC50 for inhibition of [3H]LTD4 specific binding, monovalent cation); roughly 30000 µM in experiment [4] (monovalent cation, read-out: IC50 for inhibition of radiolabelling of the 45 kDa protein); roughly 30000 µM in experiment [3] (read-out: IC50 for inhibition of [125I]Azido-LTD4 specific binding, monovalent cation).

For the compound `Nc1nc2c(ncn2[C@@H]2O[C@H](COP(=O)(O)OP(=O)(O)OP(O)(O)=S)[C@@H](O)[C@H]2O)c(=O)[nH]1` [GTPγS], the inhibition (usually how much of the control response was suppressed) at 1000 µM in experiment [1] (read-out: inhibition of [3H]LTD4 specific binding) amounted to 60%. For the same compound, the “potency relative to ATPγS in inhibiting photolabelling of the 45 kDa protein (fold more potent)” value in experiment [4] (GTPγS vs ATPγS) is 100 fold. In experiment [4] (nucleotide analogue, read-out: IC50 for inhibition of photolabelling of the 45 kDa protein), the IC50 was 1 µM. Moreover, in experiment [3] (10 μM GTPγS), the “inhibition of [125I]Azido-LTD4 specific binding” value is reported as “complete inhibition”.

With `Nc1ncnc2c1ncn2[C@@H]1O[C@H](COP(=O)(O)OP(=O)(O)OP(O)(O)=S)[C@@H](O)[C@H]1O` [ATPγS], the “effect of nucleotide analogue on [3H]LTD4 specific binding” value in experiment [1] (ATPγS) is recorded as “no detectable effect”. For the same compound, in experiment [3] (ATPγS vs GTPγS), the “potency relative to GTPγS in inhibiting [125I]Azido-LTD4 specific binding (fold less potent)” value is reported as 100 fold.
